Patent US11759436B2, “Dosage regimen of an S1P receptor modulator” (Novartis AG, priority 2009, dated 2023)

Experiments:
[1] = tested on: patients with Relapsing-remitting Multiple Sclerosis; assay: Study of oral fingolimod 0.5 mg/day or 1.25 mg/day vs interferon beta1-a in patients with RRMS; type: in vivo, human
Description: The patients are seen clinically every month for 3 months and every 3 months thereafter. The Expanded Disability Status Scale (EDSS) is performed every 3 months, the MS Functional Composite (MSFC) every 6 months, and MRI annually. Monitoring by ophthalmic examination, dermatologic examination, pulmonary function tests, chest X-ray and/or CT, Holter monitoring, and echocardiography are performed. Participants who completed 1 year on treatment are offered an optional extension phase.

[2] = tested on: Cardiac Rate and Rhythm in Healthy Patients; conditions: administration of 1.25 mg of FTY720; healthy subjects; cited from earlier work
[3] = tested on: Patients with moderate asthma; assay: Study of FTY720 vs placebo in patients with moderate asthma (pulmonary function tests, safety); type: in vivo, human; conditions: daily dosage of 0.5 mg, 10 day treatment
Description: Patients with moderate asthma are divided into 3 dosing cohorts of 12 patients each. In each cohort, the 12 patients are randomized to FTY720 (0.5 mg, 1.25 mg, and 2.5 mg in cohorts 1, 2, and 3 respectively) or placebo in a 3:1 ratio resulting in 9 patients treated with FTY720 at each dose level and 9 patients treated with placebo. The study consists of a screening period of between 12 and 26 days, baseline and a 10 day treatment period followed by a study completion evaluation (performed 1-7 days after the last dose). Two screening visits are performed, the initial Screening visit and a second visit at Day −7 (+/−1 day). […] Short-acting […] agonist use prior to treatment with study medication is also recorded in this 14 day period. […] PFT profiling is assessed at 7 time points during the visit and routine baseline evaluations are performed. On Day 1, patients are randomized in a 3:1 ratio to FTY720 or placebo and PFT profiling is assessed at 8 time points (namely pre-dose, then at 1, 2, 3, 4, 5, 6 and 12 hours post-dose). PFT assessments are also performed on Days 2, 3, 7 (all single time points assessed at approximately the same clock time as the 6 hours post-dose PFT on Day 1) and Day 10 (7 time points, namely pre-dose and then at 1, 2, 3, 4, 5 and 6 hours post-dose). […] The magnitude of the bronchoconstriction is primarily assessed by the baseline-adjusted FEV1 AUC0-6 h on Day 1. […]

[4] = both fingolimod groups (0.5 and 1.25 mg/day), month 12

Q: With `CCCCCCCCc1ccc(CCC(N)(CO)CO)cc1.Cl` [Fingolimod, 2-amino-2-[2-(4-octylphenyl)ethyl]propane-1,3-diol] as the compound, how does the “proportion of relapse-free patients” value ([1]; RRMS patients, fingolimod, dose not stated) read?
A: 83%

Q: And the “reduction in relapses vs interferon beta1-a” value ([1]; RRMS patients, higher dose (1.25 mg/day))?
A: 38%

Q: What about the “reduction in relapses vs interferon beta1-a” value ([1]; RRMS patients, lower dose (0.5 mg/day)) of the same compound?
A: 52%

Q: What about the Annualized relapse rate ([1]; RRMS patients, oral fingolimod 0.5 mg/day) of the same compound?
A: 0.16

Q: What about the Annualized relapse rate ([1]; RRMS patients, oral fingolimod 1.25 mg/day) of the same compound?
A: 0.20

Q: What about the “MRI lesion activity: number of gadolinium-enhancing T1 lesions” value [1, 4] of the same compound?
A: reduction

Q: And the “MRI lesion activity: number of new or newly enlarging T2 lesions” value [1, 4]?
A: reduction

Q: What about the Basal-cell carcinoma ([1]; fingolimod 0.5 mg/d) of the same compound?
A: 3 (0.7) n (%)

Q: What about the Breast cancer ([1]; fingolimod 0.5 mg/d) of the same compound?
A: 2 (0.5) n (%)

Q: What about the Malignant melanoma ([1]; fingolimod 0.5 mg/d) of the same compound?
A: 3 (0.7) n (%)

Q: What about the Squamous-cell carcinoma ([1]; fingolimod 0.5 mg/d) of the same compound?
A: 0 n (%)

Q: And the Basal-cell carcinoma ([1]; fingolimod 1.25 mg/day)?
A: 2 (0.5) n (%)

Q: What about the Breast cancer ([1]; fingolimod 1.25 mg/day) of the same compound?
A: 2 (0.5) n (%)

Q: What about the Malignant melanoma ([1]; fingolimod 1.25 mg/day) of the same compound?
A: 0 n (%)

Q: And the Squamous-cell carcinoma ([1]; fingolimod 1.25 mg/day)?
A: 0 n (%)

Q: What about the “decrease in heart rate” value [2] of the same compound?
A: approximately 8 beets/min

Q: What about the safety and tolerability [3] of the same compound?
A: safe and well tolerated
